Measurements taken from ChEMBL document CHEMBL4507292 (2021).

How the values were obtained:
[1] = molecular target: Epidermal growth factor receptor (Homo sapiens, UniProt P00533); test: Inhibition of Epidermal Growth Factor (EGF) at 10 µM in the Eurofins-Panlabs radioligand binding assay (Eurofins_assay_225510)
[2] = molecular target: GABA-A receptor; anion channel (Rattus norvegicus) (UniProt O09028+P15431+P18506+P18508+P19969+P20236+P23574+P23576+P28471+P28473+P30191+P62813+P63079+P63138+Q91ZM7+Q9ES14); test: Inhibition of GABAA, Muscimol, Central at 10 µM in the Eurofins-Panlabs radioligand binding assay (Eurofins_assay_226500); assay type: protein-complex assay; settings: Compound concentration 10.0 uM
[3] = molecular target: Glutamate receptor ionotropic, kainate (Rattus norvegicus) (UniProt P22756+Q01812+P42260+P42264+Q63273); test: Inhibition of Glutamate, Kainate at 10 µM in the Eurofins-Panlabs radioligand binding assay (Eurofins_assay_232700); settings: Compound concentration 10.0 uM
Rattus norvegicus [4] = species: Rattus norvegicus; test: Inhibition of Glutamate, NMDA, Phencyclidine at 10 µM in the Eurofins-Panlabs radioligand binding assay (Eurofins_assay_233000); assay type: protein-complex assay
[5] = molecular target: Kappa-type opioid receptor (Homo sapiens, UniProt P41145); test: Inhibition of Opiate kappa (OP2, KOP) at compound concentration of 10.0 uM in the Eurofins-Panlabs radioligand binding assay (Eurofins_assay_260210); set-up: ligand concentration 0.6 nM, non-specific ligand with concentration 10 uM Naloxone, incubation time 60 min, incubation temperature 25 C
[6] = molecular target: T1, Sodium-dependent noradrenaline transporter (Homo sapiens, UniProt P23975); test: Inhibition of Transporter, Norepinephrine (NET) at compound concentration of 10.0 uM in the Eurofins-Panlabs radioligand binding assay (Eurofins_assay_204410); set-up: ligand concentration 0.2 nM, non-specific ligand with concentration 10 uM Desipramine, incubation time 3 h, incubation temperature 4 C
[7] = molecular target: T2, Prostaglandin G/H synthase 2 (Homo sapiens) (UniProt P35354); test: Inhibition of Cyclooxygenase COX-2 at compound concentration of 10.0 uM in the Eurofins-Panlabs enzyme assay (Eurofins_assay_118010); set-up: substrate with concentration 0.3 uM Arachidonic acid, incubation time 15 min, incubation temperature 37 C
T2 sequence (whole entry): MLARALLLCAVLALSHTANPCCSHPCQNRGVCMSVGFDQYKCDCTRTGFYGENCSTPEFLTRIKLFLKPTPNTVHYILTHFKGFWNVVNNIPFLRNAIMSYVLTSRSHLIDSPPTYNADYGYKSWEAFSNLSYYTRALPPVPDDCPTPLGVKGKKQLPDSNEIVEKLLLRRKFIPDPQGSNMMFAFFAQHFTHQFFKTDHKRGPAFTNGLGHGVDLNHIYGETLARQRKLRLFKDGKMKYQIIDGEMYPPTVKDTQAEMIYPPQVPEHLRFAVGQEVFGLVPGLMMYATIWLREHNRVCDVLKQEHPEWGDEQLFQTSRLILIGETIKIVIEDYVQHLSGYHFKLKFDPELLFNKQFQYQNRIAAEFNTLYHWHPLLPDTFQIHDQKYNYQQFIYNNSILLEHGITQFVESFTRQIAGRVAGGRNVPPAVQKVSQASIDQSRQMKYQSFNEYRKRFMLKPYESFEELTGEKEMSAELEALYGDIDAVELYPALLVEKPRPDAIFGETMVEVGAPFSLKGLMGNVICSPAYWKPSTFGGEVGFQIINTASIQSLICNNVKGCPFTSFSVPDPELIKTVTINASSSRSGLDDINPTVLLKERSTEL

Rattus norvegicus [8] = species: Rattus norvegicus; test: Inhibition of Glycine, Strychnine-Sensitive at 10 µM in the Eurofins-Panlabs radioligand binding assay (Eurofins_assay_239000); settings: Compound concentration 10.0 uM
[9] = molecular target: Substance-K receptor (Homo sapiens) (UniProt P21452); test: Inhibition of Tachykinin NK2 at 10 µM in the Eurofins-Panlabs radioligand binding assay (Eurofins_assay_255600); set-up: ligand concentration 0.5 nM; settings: Compound concentration 10.0 uM
[10] = molecular target: Vasoactive intestinal polypeptide receptor 1 (Homo sapiens) (UniProt P32241); test: Inhibition of Vasoactive Intestinal Peptide VIP1 at 10 µM in the Eurofins-Panlabs radioligand binding assay (Eurofins_assay_287010); settings: Compound concentration 10.0 uM
[11] = molecular target: Tyrosine 3-monooxygenase (Homo sapiens) (UniProt P07101); test: Tyrosine Hydroxylase Eurofins-Panlabs enzyme assay; set-up: substrate with concentration; settings: Rattus norvegicus; Compound concentration 10.0 uM
[12] = molecular target: Histamine H4 receptor (Homo sapiens) (UniProt Q9H3N8); test: Histamine H4 Eurofins-Panlabs radioligand binding assay; settings: Compound concentration 10.0 uM
[13] = molecular target: Nociceptin receptor (Homo sapiens) (UniProt P41146); test: Orphanin ORL1 Eurofins-Panlabs radioligand binding assay; settings: Compound concentration 10.0 uM
[14] = molecular target: Vascular endothelial growth factor receptor 1 (Homo sapiens) (UniProt P17948); test: Protein Tyrosine Kinase, FLT1 (VEGFR-1) Eurofins-Panlabs enzyme assay; settings: Compound concentration 10.0 uM
[15] = molecular target: C-C chemokine receptor type 1 (Homo sapiens) (UniProt P32246); test: Chemokine CCR1 Eurofins-Panlabs radioligand binding assay; settings: Compound concentration 10.0 uM
[16] = molecular target: Prostacyclin receptor (Homo sapiens) (UniProt P43119); test: Prostanoid IP Eurofins-Panlabs radioligand binding assay; set-up: ligand concentration 5 nM; settings: Compound concentration 10.0 uM
[17] = molecular target: Somatostatin receptor type 1 (Homo sapiens) (UniProt P30872); test: Somatostatin sst1 Eurofins-Panlabs radioligand binding assay; set-up: ligand concentration 0.1 nM; settings: Compound concentration 10.0 uM
[18] = molecular target: Somatostatin receptor type 5 (Homo sapiens) (UniProt P35346); test: Somatostatin sst5 Eurofins-Panlabs radioligand binding assay; settings: Compound concentration 10.0 uM
[19] = molecular target: Protein kinase C iota type (Homo sapiens) (UniProt P41743); settings: Compound concentration 1000.0 nM
[20] = molecular target: T3, 5-hydroxytryptamine receptor 1A (Homo sapiens) (UniProt P08908)
T3 sequence (whole entry): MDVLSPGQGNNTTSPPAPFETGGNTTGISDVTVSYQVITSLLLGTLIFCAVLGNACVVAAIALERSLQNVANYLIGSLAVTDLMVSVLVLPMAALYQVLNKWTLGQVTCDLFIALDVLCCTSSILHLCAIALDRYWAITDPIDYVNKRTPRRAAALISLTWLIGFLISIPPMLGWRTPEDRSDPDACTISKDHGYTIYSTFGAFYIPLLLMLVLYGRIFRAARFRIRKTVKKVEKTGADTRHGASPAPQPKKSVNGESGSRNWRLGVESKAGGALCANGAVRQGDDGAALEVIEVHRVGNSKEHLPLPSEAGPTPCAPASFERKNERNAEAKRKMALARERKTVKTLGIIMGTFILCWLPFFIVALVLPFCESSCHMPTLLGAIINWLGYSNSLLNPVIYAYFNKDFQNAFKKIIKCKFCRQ

Rattus norvegicus [21] = species: Rattus norvegicus; settings: Compound concentration 10.0 uM
[22] = molecular target: T1, Sodium-dependent noradrenaline transporter

T1 sequence (P23975 whole entry): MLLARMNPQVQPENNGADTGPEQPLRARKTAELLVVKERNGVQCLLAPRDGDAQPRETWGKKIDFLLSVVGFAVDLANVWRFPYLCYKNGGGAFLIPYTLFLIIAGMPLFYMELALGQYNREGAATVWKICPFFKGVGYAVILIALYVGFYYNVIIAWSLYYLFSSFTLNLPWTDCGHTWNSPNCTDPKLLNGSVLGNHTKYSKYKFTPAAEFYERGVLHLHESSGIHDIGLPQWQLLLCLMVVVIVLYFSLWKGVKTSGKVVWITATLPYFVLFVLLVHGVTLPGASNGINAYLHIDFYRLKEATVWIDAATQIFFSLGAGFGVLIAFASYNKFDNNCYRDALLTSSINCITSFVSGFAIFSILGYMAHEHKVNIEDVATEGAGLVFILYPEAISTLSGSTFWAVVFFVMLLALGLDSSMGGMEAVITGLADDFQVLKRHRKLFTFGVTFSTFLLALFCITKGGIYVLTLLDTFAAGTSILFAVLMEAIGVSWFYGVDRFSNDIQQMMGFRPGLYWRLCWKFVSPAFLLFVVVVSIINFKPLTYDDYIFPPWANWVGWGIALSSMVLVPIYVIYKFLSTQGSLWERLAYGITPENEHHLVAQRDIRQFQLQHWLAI
Chain of Kappa-type opioid receptor (P41145 whole entry): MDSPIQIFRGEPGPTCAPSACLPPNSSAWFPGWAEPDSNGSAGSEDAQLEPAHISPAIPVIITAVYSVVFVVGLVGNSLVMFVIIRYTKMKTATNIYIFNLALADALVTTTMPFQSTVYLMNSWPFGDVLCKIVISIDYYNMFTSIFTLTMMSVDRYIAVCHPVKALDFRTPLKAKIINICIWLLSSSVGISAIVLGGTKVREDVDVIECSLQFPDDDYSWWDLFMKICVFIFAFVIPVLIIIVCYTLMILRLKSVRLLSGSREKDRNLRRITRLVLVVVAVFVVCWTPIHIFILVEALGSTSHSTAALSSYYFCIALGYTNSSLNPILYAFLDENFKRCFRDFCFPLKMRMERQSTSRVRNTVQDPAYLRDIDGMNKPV
Chain of Epidermal growth factor receptor (P00533 whole entry): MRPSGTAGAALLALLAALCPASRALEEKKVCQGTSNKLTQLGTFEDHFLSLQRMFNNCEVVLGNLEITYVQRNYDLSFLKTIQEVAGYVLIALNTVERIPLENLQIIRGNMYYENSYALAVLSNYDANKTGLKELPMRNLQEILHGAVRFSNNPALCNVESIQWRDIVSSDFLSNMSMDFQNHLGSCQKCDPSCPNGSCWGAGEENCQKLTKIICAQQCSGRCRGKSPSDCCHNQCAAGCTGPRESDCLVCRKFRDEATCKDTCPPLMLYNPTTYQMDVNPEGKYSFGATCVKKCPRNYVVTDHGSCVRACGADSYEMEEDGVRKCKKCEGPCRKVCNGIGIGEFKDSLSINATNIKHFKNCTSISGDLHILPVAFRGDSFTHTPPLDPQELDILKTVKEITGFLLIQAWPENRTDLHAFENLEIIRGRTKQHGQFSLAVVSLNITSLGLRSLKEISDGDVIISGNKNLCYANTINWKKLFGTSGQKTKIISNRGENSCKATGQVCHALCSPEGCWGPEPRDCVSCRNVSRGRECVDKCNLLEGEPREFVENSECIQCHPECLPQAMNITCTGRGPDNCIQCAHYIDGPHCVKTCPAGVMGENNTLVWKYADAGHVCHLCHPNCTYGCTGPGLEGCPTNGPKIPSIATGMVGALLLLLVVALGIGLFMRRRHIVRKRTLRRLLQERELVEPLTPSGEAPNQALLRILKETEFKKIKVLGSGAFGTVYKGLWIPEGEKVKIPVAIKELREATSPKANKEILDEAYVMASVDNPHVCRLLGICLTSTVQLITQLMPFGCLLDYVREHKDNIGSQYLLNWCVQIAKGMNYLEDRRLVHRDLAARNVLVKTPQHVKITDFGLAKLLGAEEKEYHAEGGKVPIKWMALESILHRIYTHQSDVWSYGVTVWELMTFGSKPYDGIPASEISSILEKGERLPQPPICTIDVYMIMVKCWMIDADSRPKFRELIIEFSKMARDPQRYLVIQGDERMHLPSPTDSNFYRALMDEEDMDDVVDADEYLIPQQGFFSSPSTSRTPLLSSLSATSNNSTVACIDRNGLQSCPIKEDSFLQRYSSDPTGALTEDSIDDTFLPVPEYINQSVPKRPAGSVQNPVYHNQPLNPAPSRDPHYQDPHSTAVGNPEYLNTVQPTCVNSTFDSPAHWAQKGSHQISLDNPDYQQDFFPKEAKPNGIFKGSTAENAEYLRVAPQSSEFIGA
Chain of Prostacyclin receptor (Homo sapiens) (P43119 whole entry): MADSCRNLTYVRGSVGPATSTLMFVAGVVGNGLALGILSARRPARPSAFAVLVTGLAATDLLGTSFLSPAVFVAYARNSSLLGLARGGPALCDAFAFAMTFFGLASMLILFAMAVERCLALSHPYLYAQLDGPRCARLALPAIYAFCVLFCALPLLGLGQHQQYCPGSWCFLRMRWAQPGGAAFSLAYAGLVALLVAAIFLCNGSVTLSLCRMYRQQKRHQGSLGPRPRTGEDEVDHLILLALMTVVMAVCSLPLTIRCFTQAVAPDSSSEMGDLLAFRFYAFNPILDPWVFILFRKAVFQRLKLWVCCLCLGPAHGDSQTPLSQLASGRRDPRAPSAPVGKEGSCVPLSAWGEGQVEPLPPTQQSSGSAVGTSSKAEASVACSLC
Chain of C-C chemokine receptor type 1 (Homo sapiens) (P32246 whole entry): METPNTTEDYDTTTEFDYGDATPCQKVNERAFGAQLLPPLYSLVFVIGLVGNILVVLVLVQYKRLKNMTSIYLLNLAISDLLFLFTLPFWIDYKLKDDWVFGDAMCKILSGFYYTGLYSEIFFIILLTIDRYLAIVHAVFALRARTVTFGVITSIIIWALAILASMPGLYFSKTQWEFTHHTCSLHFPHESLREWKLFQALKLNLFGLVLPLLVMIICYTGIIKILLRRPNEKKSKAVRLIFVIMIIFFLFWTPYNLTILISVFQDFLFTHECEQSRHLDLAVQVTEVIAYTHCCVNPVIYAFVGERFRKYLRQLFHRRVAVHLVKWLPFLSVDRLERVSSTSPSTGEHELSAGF
Chain of Tyrosine 3-monooxygenase (Homo sapiens) (P07101 whole entry): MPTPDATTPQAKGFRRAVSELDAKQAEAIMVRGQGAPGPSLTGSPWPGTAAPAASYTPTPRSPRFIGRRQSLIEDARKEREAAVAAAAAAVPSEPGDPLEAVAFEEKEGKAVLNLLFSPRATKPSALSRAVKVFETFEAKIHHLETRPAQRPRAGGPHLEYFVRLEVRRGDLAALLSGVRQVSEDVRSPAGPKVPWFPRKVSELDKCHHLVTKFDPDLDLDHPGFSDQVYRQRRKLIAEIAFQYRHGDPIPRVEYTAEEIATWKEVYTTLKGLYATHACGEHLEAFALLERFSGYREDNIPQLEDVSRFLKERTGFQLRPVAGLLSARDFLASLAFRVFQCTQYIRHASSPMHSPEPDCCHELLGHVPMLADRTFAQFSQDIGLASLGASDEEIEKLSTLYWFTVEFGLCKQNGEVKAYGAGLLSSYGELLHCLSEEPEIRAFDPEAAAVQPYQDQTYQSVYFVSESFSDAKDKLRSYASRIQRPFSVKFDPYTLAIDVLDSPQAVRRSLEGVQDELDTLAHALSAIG
Chain of Vascular endothelial growth factor receptor 1 (Homo sapiens) (P17948 whole entry): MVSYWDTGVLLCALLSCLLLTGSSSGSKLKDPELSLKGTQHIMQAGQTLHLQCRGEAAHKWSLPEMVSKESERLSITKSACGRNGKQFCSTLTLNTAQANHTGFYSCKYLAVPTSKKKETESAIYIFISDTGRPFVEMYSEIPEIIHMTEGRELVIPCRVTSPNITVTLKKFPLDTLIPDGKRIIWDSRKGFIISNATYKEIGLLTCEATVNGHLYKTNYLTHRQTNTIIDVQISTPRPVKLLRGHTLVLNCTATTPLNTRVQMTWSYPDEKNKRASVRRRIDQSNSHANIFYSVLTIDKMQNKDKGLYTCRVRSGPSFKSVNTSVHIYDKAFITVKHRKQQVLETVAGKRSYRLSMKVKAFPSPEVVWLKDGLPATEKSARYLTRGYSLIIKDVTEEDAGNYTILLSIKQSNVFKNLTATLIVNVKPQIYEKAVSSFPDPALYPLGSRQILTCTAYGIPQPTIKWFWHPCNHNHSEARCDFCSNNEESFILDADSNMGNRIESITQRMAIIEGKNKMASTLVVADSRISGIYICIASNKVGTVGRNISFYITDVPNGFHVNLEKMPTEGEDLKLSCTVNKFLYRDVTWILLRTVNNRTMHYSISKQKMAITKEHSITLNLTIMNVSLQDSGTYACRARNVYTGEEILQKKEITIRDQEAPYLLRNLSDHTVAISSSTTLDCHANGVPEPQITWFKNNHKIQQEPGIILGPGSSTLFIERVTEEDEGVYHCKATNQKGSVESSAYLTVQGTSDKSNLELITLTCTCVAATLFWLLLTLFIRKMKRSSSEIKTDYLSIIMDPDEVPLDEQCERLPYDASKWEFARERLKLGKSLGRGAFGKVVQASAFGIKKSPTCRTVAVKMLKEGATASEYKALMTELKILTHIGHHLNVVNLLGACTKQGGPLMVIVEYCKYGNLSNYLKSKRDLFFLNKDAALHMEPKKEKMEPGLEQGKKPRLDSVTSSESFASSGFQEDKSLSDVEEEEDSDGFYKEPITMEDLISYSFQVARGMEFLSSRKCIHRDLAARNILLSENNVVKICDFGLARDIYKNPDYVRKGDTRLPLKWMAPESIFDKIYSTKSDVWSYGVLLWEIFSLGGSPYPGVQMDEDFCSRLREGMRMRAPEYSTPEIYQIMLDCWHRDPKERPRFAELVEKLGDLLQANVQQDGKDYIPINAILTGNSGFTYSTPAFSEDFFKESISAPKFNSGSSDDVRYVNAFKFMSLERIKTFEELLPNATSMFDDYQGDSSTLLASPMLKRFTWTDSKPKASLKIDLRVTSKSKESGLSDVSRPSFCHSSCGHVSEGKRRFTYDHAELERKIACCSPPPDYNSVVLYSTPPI

O=C(O)c1cc(-c2ccc(C3CCNCC3)cc2)c2ccc(-c3ccc(C(F)(F)F)cc3)cc2c1 [PPTN]
inhibition [1]: 35%
inhibition [2]: 12%
inhibition [3]: -1%
inhibition (Rattus norvegicus [4]): 17%
IC50 [5]: 8.03 µM
Ki [5]: 3.21 µM
IC50 [6]: 3.3 µM
Ki [6]: 3.27 µM
inhibition ([7]; Compound concentration 0.01 uM): -3%
inhibition ([7]; Compound concentration 0.1 uM): 0%
inhibition ([7]; Compound concentration 1.0 uM): -1%
inhibition ([7]; Compound concentration 10.0 uM): 70%
inhibition (Rattus norvegicus [8]): -3%
inhibition [9]: 26%
inhibition [10]: 3%
inhibition [11]: -3%
inhibition [12]: 15%
inhibition [13]: 12%
inhibition [14]: -2%
inhibition [15]: -9%
inhibition [16]: -3%
inhibition [17]: 34%
inhibition [18]: 20%
residual activity [19]: 82%
inhibition ([20]; Compound concentration 0.01 uM): 0%
inhibition ([20]; Compound concentration 0.1 uM): -2%
inhibition ([20]; Compound concentration 1.0 uM): 4%
inhibition ([20]; Compound concentration 10.0 uM): 64%
inhibition (Rattus norvegicus [21]): 3%
inhibition ([22]; Compound concentration 0.01 uM): 6%
inhibition ([22]; Compound concentration 0.1 uM): -2%
inhibition ([22]; Compound concentration 1.0 uM): 20%
inhibition ([22]; Compound concentration 10.0 uM): 78%
